Laboratory results published in patent publication US9586986B2, “Substituted 7-deazapurine ribonucleosides for therapeutic uses” (Institute of Organic Chemistry and Biochemistry ASCR, v.v.i., priority 2014, dated 2017).

Legend:
HepG2 = test: XTT cytotoxicity assay, HepG2; assay type: cell-based; settings: Homo sapiens, HepG2; 72 h incubation; read-out: XTT, IC50 HepG2
Summary of the method: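 HepG2 cells seeded at 10,000/well, compounds added after 24 h and incubated 72 h at 37 °C, 5% CO2. Viability by XTT reduction (1 mg/mL XTT plus electron coupler), absorbance at 495 nm after 2 h; IC50 by non-linear regression.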

[1] = system: HCV subtype 1B replicon in Huh-7 cells; test: HCV sub-genomic reporter replicon assay, subtype 1B; assay type: cell-based; settings: Hepatitis C virus; Huh-7 cells, HCV subtype 1B replicon; read-out: Replicon 1B EC50
Protocol: (§1) Compounds were also tested in Huh-7 cells harboring sub-genomic reporter replicons derived from HCV subtypes 1B and 2A (ref.: Stuyver, L. J.; Whitaker, T.; McBrayer, T. R.; Hernandez-Santiago, B. I.; Lostia, S.; Tharnish, P. M.; Ramesh, M.; Chu, C. K.; Jordan, R.; Shi, J. X.; Rachakonda, S.; Watanabe, K. A.; Otto, M. J.; Schinazi, R. F. Antimicrob. Agents Chemother. 2003, 47, 244-254).

CCRF-CEM cells [2] = test: BrdU incorporation analysis (DNA synthesis); assay type: cell-based, human; settings: for BrdU+ (DNA synthesis), % of total cell populations: CCRF-CEM cells treated at IC50 for 24 hrs
Protocol: Cells were cultured as for cell cycle analysis. Before harvesting, they were pulse-labelled with 10 M 5-bromo-2′-deoxyuridine (BrdU) for 30 min. The cells were trypsinized, fixed with ice-cold 70% ethanol, incubated on ice for 30 min, washed with PBS, and resuspended in 2 M HCl for 30 min at room temperature to denature their DNA. Following neutralization with 0.1 M Na2B4O7, the cells were washed with PBS containing 0.5% Tween-20 and 1% BSA. They were then stained with primary anti-BrdU antibody (Exbio) for 30 min at room temperature in the dark. Cells were than washed with PBS and stained with secondary anti-mouse-FITC antibody (Sigma). The cells were then washed with PBS, incubated with propidium iodide (0.1 mg/mL) and RNAse A (0.5 mg/mL) for 1 h at room temperature in the dark, and finally analyzed by flow cytometry using a 488 nm single-beam laser (FACSCalibur, Becton Dickinson).
(§2) However, the major mechanism of action was inhibition of RNA synthesis (BrU incorporation). […] Cell cycle alterations (G1, S, G2/M) were not observed in treated cells under specified experimental conditions.

CCRF-CEM cells [3] = test: Mitotic cells, pH3Ser10 antibody labeling (flow cytometry); assay type: cell-based, human; settings: CCRF-CEM cells treated at IC50 for 24 hrs
Protocol: (§3) After the incubation period, cells were then washed with cold 1×PBS and fixed in 70% ethanol added dropwise and stored overnight at −20° C. Afterwards, cells were washed in hypotonic citrate buffer, treated with RNase (50 μg/mL) and stained with propidium iodide. Flow cytometry using a 488 nm single-beam laser (Becton Dickinson) was used for measurement. The data were analyzed according to the program ModFitLT (Verity), and apoptosis was expressed as the percentage of cells with a propidium content lower than that in the G0/G1 population. Half of the sample was used for pH3^ser10 antibody (Sigma) labeling and subsequent flow cytometry analysis of mitotic cells.
as §2

[4] = system: HCV subtype 2A replicon in Huh-7 cells; test: HCV sub-genomic reporter replicon assay, subtype 2A; assay type: cell-based; settings: Hepatitis C virus; Huh-7 cells, HCV subtype 2A replicon; read-out: Replicon 2A EC50
Protocol: as §1

CCRF-CEM cells [5] = test: BrU incorporation analysis (RNA synthesis); assay type: cell-based, human; settings: CCRF-CEM cells treated at IC50 for 24 hrs
Protocol: Cells were cultured and treated as for cell cycle analysis. Before harvesting, they were pulse-labelled with 1 mM 5-bromouridine (BrU) for 30 min. The cells were fixed in 1% buffered paraformaldehyde with 0.05% of NP-40, incubated in room temperature for 15 min and than in the fridge overnight. They were then washed in 1% glycin in PBS, washed in PBS and stained with primary anti-BrdU antibody crossreacting to BrU (Exbio) for 30 min at room temperature in the dark. Cells were than washed with PBS and stained with secondary anti-mouse-FITC antibody (Sigma). Following the staining the cells are washed with PBS and fixed with 1% PBS buffered paraformaldehyde with 0.05% of NP-40. The cells were then washed with PBS, incubated with propidium iodide (0.1 mg/mL) and RNAse A (0.5 mg/mL) for 1 h at room temperature in the dark, and finally analyzed by flow cytometry using a 488 nm single-beam laser (FACSCalibur, Becton Dickinson).
as §2

CCRF-CEM cells [6] = test: Cell cycle and apoptosis analysis (flow cytometry, propidium iodide); assay type: cell-based, human; settings: for G1, % of total cell populations / G2/M, % of total cell populations / S, % of total cell populations / sub-G1 (apoptosis), % of total cell populations: CCRF-CEM cells treated at IC50 for 24 hrs
Protocol: as §3, §2

Structure (SMILES)	IC50 (HepG2) [nM]	EC50 [1] [nM]	BrdU+ (DNA synthesis), % of total cell populations (CCRF-CEM cells [2]) [%]	pH3Ser10+ (mitosis), % of total cell populations (CCRF-CEM cells [3]) [%]	EC50 [4] [µM]	melting point [°C]	BrU+ (RNA synthesis), % of total cell populations (CCRF-CEM cells [5]) [%]	G1, % of total cell populations (CCRF-CEM cells [6]) [%]	G2/M, % of total cell populations (CCRF-CEM cells [6]) [%]	S, % of total cell populations (CCRF-CEM cells [6]) [%]	sub-G1 (apoptosis), % of total cell populations (CCRF-CEM cells [6]) [%]	apoptosis induction in words (CCRF-CEM cells [6]; CCRF-CEM, IC50, 24 hours)	DNA synthesis inhibition in words (CCRF-CEM cells [2]; CCRF-CEM, IC50, 24 hours)
COc1ncnc2c1c(-c1ccoc1)cn2[C@@H]1O[C@H](CO)[C@@H](O)[C@H]1O [Compound 1b, 5-(Furan-3-yl)-4-methoxy-7-(β-D-ribofuranosyl)-7H-pyrrolo[2,3-d]pyrimidine]	290	330	44.2	1.6	8.28	190 to 192	0.7	43.5	12.3	44.2	8.5	–	–
COc1ncnc2c1c(-c1cccs1)cn2[C@@H]1O[C@H](CO)[C@@H](O)[C@H]1O [Compound 1c, 4-Methoxy-7-(β-D-ribofuranosyl)-5-(thiophen-2-yl)-7H-pyrrolo[2,3-d]pyrimidine]	13900	1080	38.6	1.1	> 44	140 to 143	0.1	41.5	9.8	48.7	7.5	–	–
COc1ncnc2c1c(-c1ccsc1)cn2[C@@H]1O[C@H](CO)[C@@H](O)[C@H]1O [Compound 1d, 4-Methoxy-7-(β-D-ribofuranosyl)-5-(thiophen-3-yl)-7H-pyrrolo[2,3-d]pyrimidine]	430	550	44.4	2.9	> 44	169 to 171	0.5	40.8	12.7	46.5	75	major apoptosis	–
CNc1ncnc2c1c(-c1ccco1)cn2[C@@H]1O[C@H](CO)[C@@H](O)[C@H]1O [Compound 3a, 5-(Furan-2-yl)-4-methylamino-7-(β-D-ribofuranosyl)-7H-pyrrolo[2,3-d]pyrimidine]	850	60	47.2	1.4	0.14	–	1.	42.2	12.1	45.8	10.6	–	–
CN(C)c1ncnc2c1c(-c1ccco1)cn2[C@@H]1O[C@H](CO)[C@@H](O)[C@H]1O [Compound 4a, 4-Dimethylamino-5-(furan-2-yl)-7-(β-D-ribofuranosyl)-7H-pyrrolo[2,3-d]pyrimidine]	> 15000	1490	50.6	1.5	1.35	–	0.4	31	15.4	53.6	10.2	–	–
CN(C)c1ncnc2c1c(-c1ccsc1)cn2[C@@H]1O[C@H](CO)[C@@H](O)[C@H]1O [Compound 4d, 4-Dimethylamino-7-(β-D-ribofuranosyl)-5-(thiophen-3-yl)-7H-pyrrolo[2,3-d]pyrimidine]	> 20000	38400	36.1	0.7	> 44	–	0.7	41.4	11.2	47.4	6.8	–	barely inhibited
C#Cc1cn([C@@H]2O[C@H](CO)[C@@H](O)[C@H]2O)c2ncnc(N(C)C)c12 [Compound 4g, 4-Dimethylamino-5-ethynyl-7-(β-D-ribofuranosyl)-7H-pyrrolo[2,3-d]pyrimidine]	1320	70	43.4	1.3	0.1	–	8.6	38.5	14.7	46.8	8.9	–	–
CN(C)c1ncnc2c1c(I)cn2[C@@H]1O[C@H](CO)[C@@H](O)[C@H]1O [Compound 4h, 4-Dimethylamino-5-iodo-7-(β-D-ribofuranosyl)-7H-pyrrolo[2,3-d]pyrimidine]	13900	690	48.7	1.3	> 44	195 to 197	4.8	39.8	13.5	46.7	9.4	–	–
